Data: ChEMBL document CHEMBL1201862, “PubChem BioAssay data set” (2004)
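Values below derive from 48-hour exposures of cells grown in 96-well plates, with endpoints linearly interpolated between the two concentrations bracketing the appropriate inhibition level. At the GI50, growth is halved.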 Activity calls are given as the source filed them. Cut-off read from the data, not from the text of the source: active = GI50 up to about 1.1 µM and inactive = higher.

Columns and labels:
Assay in all cases: DTP human tumour cell line panel, 48 h
DU-145 = system: DU-145
NCI-H23 = system: NCI-H23
HCT-15 = system: HCT-15
OVCAR-5 = system: OVCAR-5
KM12 = system: KM12
HT-29 = system: HT-29
TK-10 = system: TK-10
CAKI-1 = system: CAKI-1
Malme-3M = system: Malme-3M
HOP-92 = system: HOP-92
SN12C = system: SN12C
SNB-75 = system: SNB-75
ACHN = system: ACHN
HOP-62 = system: HOP-62
MDA-N = system: MDA-N
SW-620 = system: SW-620
MDA-MB-231 = system: MDA-MB-231
OVCAR-8 = system: OVCAR-8
786-0 = system: 786-0
SK-OV-3 = system: SK-OV-3
COLO 205 = system: COLO 205
NCI-H226 = system: NCI-H226
SF-539 = system: SF-539
SF-295 = system: SF-295
LOX IMVI = system: LOX IMVI
BT-549 = system: BT-549
EKVX = system: EKVX
SF-268 = system: SF-268
HCT-116 = system: HCT-116
MDA-MB-435 = system: MDA-MB-435
MOLT-4 = system: MOLT-4
NCI/ADR-RES = system: NCI/ADR-RES
U-251 = system: U-251
OVCAR-3 = system: OVCAR-3
T47D = system: T47D
NCI-H522 = system: NCI-H522
OVCAR-4 = system: OVCAR-4
RPMI-8226 = system: RPMI-8226
SK-MEL-5 = system: SK-MEL-5
RXF 393 = system: RXF 393
UACC-257 = system: UACC-257
A498 = system: A498
M14 = system: M14
SK-MEL-2 = system: SK-MEL-2
MCF7 = system: MCF7
UO-31 = system: UO-31
SR = system: SR
SNB-19 = system: SNB-19
A549 = system: A549
NCI-H460 = system: NCI-H460
HCC 2998 = system: HCC 2998
SK-MEL-28 = system: SK-MEL-28
K562 = system: K562
CCRF-CEM = system: CCRF-CEM
PC-3 = system: PC-3
HL-60 = system: HL-60
Hs-578T = system: Hs-578T
UACC-62 = system: UACC-62
IGROV-1 = system: IGROV-1

`N#CCc1nc2cc(C(F)(F)F)ccc2s1` was tested, and the GI50 (DU-145) was 48.3 µM (inactive), the GI50 (NCI-H23) was 27.7 µM (inactive) and the GI50 (HCT-15) was 52.1 µM. The GI50 (OVCAR-5) was > 100 µM (inactive), the GI50 (KM12) was 64.6 µM (inactive) and the GI50 (HT-29) was 37.7 µM (inactive). For the same compound, the GI50 (TK-10) was 41.8 µM (inactive), the GI50 (CAKI-1) was 70.6 µM (inactive) and the GI50 (Malme-3M) was 42.6 µM (inactive). For the same compound, the GI50 (HOP-92) was 20.4 µM (inactive), the GI50 (SN12C) was 45.5 µM (inactive) and the GI50 (SNB-75) was 35.3 µM (inactive). The GI50 (ACHN) was 56 µM (inactive), the GI50 (HOP-62) was 73.3 µM (inactive) and the GI50 (MDA-N) was 32.2 µM (inactive). For the same compound, the GI50 (SW-620) was 56.4 µM (inactive), the GI50 (MDA-MB-231) was 95.1 µM (inactive) and the GI50 (OVCAR-8) was 30.1 µM (inactive). For the same compound, the GI50 (786-0) was 37.3 µM (inactive), the GI50 (SK-OV-3) was > 100 µM (inactive) and the GI50 (COLO 205) was 34 µM (inactive). For the same compound, the GI50 (NCI-H226) was 57.8 µM (inactive), the GI50 (SF-539) was 51.8 µM (inactive) and the GI50 (SF-295) was 49.4 µM (inactive). For the same compound, the GI50 (LOX IMVI) was 26.4 µM (inactive), the GI50 (BT-549) was 31 µM (inactive) and the GI50 (EKVX) was 10.7 µM (inactive). For the same compound, the GI50 (SF-268) was 34.8 µM (inactive), the GI50 (HCT-116) was 26.7 µM (inactive) and the GI50 (MDA-MB-435) was 40.4 µM (inactive). The GI50 (MOLT-4) was 7.96 µM (inactive), the GI50 (NCI/ADR-RES) was 55.7 µM (inactive) and the GI50 (U-251) was 38.7 µM (inactive). The GI50 (OVCAR-3) was 18.3 µM (inactive), the GI50 (T47D) was 23.1 µM (inactive) and the GI50 (NCI-H522) was 11.1 µM (inactive). The GI50 (OVCAR-4) was 38.6 µM (inactive), the GI50 (RPMI-8226) was 29.4 µM (inactive) and the GI50 (SK-MEL-5) was 50.7 µM (inactive). For the same compound, the GI50 (RXF 393) was 52.2 µM (inactive), the GI50 (UACC-257) was 34.4 µM (inactive) and the GI50 (A498) was 70 µM (inactive).

In the case of `COc1ccc2nc3ccc(OC)cc3c(SCC3CO3)c2c1` (stereo not drawn), the GI50 (NCI-H23) is reported as 17.2 µM (inactive), the GI50 (M14) is reported as 14.4 µM (inactive) and the GI50 (HCT-15) is reported as 15.6 µM. For the same compound, the GI50 (SK-MEL-2) was 14.2 µM (inactive), the GI50 (OVCAR-5) was 24.9 µM (inactive) and the GI50 (KM12) was 16.1 µM (inactive). For the same compound, the GI50 (TK-10) was 12.8 µM (inactive), the GI50 (CAKI-1) was 5.79 µM (inactive) and the GI50 (Malme-3M) was 14.1 µM (inactive). The GI50 (MCF7) was 11.2 µM (inactive), the GI50 (SN12C) was 13.8 µM (inactive) and the GI50 (UO-31) was 12.3 µM (inactive). The GI50 (SR) was 6.89 µM (inactive), the GI50 (SNB-75) was 37.2 µM (inactive) and the GI50 (SNB-19) was 24.6 µM (inactive). The GI50 (ACHN) was 8.71 µM (inactive), the GI50 (HOP-62) was 44.6 µM (inactive) and the GI50 (MDA-N) was 15.8 µM (inactive). For the same compound, the GI50 (SW-620) was 11.1 µM (inactive), the GI50 (A549) was 24.2 µM (inactive) and the GI50 (MDA-MB-231) was 15 µM (inactive). For the same compound, the GI50 (NCI-H460) was 12 µM (inactive), the GI50 (OVCAR-8) was 11 µM (inactive) and the GI50 (786-0) was 11.1 µM (inactive). The GI50 (HCC 2998) was 15.6 µM (inactive), the GI50 (SK-OV-3) was 71.3 µM (inactive) and the GI50 (SK-MEL-28) was 17.7 µM (inactive). The GI50 (COLO 205) was 19 µM (inactive), the GI50 (NCI-H226) was 34.4 µM (inactive) and the GI50 (SF-539) was 10.8 µM (inactive). The GI50 (SF-295) was 60.7 µM (inactive), the GI50 (LOX IMVI) was 15.4 µM (inactive) and the GI50 (BT-549) was 15.8 µM (inactive). For the same compound, the GI50 (EKVX) was 13.3 µM (inactive), the GI50 (SF-268) was 13.2 µM (inactive) and the GI50 (HCT-116) was 10.5 µM (inactive). The GI50 (MDA-MB-435) was 18.2 µM (inactive), the GI50 (NCI/ADR-RES) was 17.1 µM (inactive) and the GI50 (U-251) was 12.7 µM (inactive). The GI50 (OVCAR-3) was 14.9 µM (inactive), the GI50 (K562) was 8.59 µM (inactive) and the GI50 (T47D) was 16.8 µM (inactive). The GI50 (NCI-H522) was 13 µM (inactive), the GI50 (OVCAR-4) was 19.5 µM (inactive) and the GI50 (RPMI-8226) was 22.7 µM (inactive). The GI50 (SK-MEL-5) was 15.8 µM (inactive), the GI50 (CCRF-CEM) was 6.85 µM (inactive) and the GI50 (RXF 393) was 15.8 µM (inactive). For the same compound, the GI50 (UACC-257) was 15.5 µM (inactive), the GI50 (A498) was 25.8 µM (inactive) and the GI50 (PC-3) was 14.9 µM (inactive).

With `COc1ccc(/C=C/c2cc(O)cc(OC)c2)cc1` the GI50 (DU-145) was > 100 µM (inactive), the GI50 (NCI-H23) was > 100 µM (inactive) and the GI50 (M14) was > 100 µM (inactive). The GI50 (HCT-15) was 0.855 µM, the GI50 (SK-MEL-2) was > 100 µM (inactive) and the GI50 (OVCAR-5) was > 100 µM (inactive). The GI50 (HL-60) was 79.6 µM (inactive), the GI50 (KM12) was 40.9 µM (inactive) and the GI50 (Hs-578T) was > 100 µM (inactive). The GI50 (HT-29) was > 100 µM (inactive), the GI50 (TK-10) was > 100 µM (inactive) and the GI50 (CAKI-1) was > 100 µM (inactive). For the same compound, the GI50 (Malme-3M) was 86.3 µM (inactive), the GI50 (MCF7) was > 100 µM (inactive) and the GI50 (HOP-92) was 50.7 µM (inactive). The GI50 (SN12C) was 65.2 µM (inactive), the GI50 (UO-31) was > 100 µM (inactive) and the GI50 (SR) was > 100 µM (inactive). For the same compound, the GI50 (UACC-62) was > 100 µM (inactive), the GI50 (SNB-75) was > 100 µM (inactive) and the GI50 (SNB-19) was > 100 µM (inactive). The GI50 (ACHN) was 19.8 µM (inactive), the GI50 (HOP-62) was > 100 µM (inactive) and the GI50 (SW-620) was > 100 µM (inactive). For the same compound, the GI50 (A549) was 97.3 µM (inactive), the GI50 (MDA-MB-231) was 27.8 µM (inactive) and the GI50 (NCI-H460) was 84.5 µM (inactive). For the same compound, the GI50 (IGROV-1) was > 100 µM (inactive), the GI50 (OVCAR-8) was > 100 µM (inactive) and the GI50 (786-0) was > 100 µM (inactive). The GI50 (SK-OV-3) was > 100 µM (inactive), the GI50 (SK-MEL-28) was > 100 µM (inactive) and the GI50 (COLO 205) was > 100 µM (inactive). For the same compound, the GI50 (NCI-H226) was > 100 µM (inactive), the GI50 (SF-539) was > 100 µM (inactive) and the GI50 (SF-295) was 75.9 µM (inactive). The GI50 (BT-549) was 22.9 µM (inactive), the GI50 (EKVX) was 55.3 µM (inactive) and the GI50 (SF-268) was > 100 µM (inactive). For the same compound, the GI50 (HCT-116) was > 100 µM (inactive), the GI50 (MDA-MB-435) was 68.4 µM (inactive) and the GI50 (MOLT-4) was 56.5 µM (inactive). The GI50 (NCI/ADR-RES) was > 100 µM (inactive), the GI50 (U-251) was 28.7 µM (inactive) and the GI50 (OVCAR-3) was > 100 µM (inactive). For the same compound, the GI50 (K562) was 67.9 µM (inactive), the GI50 (T47D) was > 100 µM (inactive) and the GI50 (NCI-H522) was 65.3 µM (inactive). For the same compound, the GI50 (OVCAR-4) was > 100 µM (inactive), the GI50 (RPMI-8226) was 22.3 µM (inactive) and the GI50 (SK-MEL-5) was > 100 µM (inactive). The GI50 (RXF 393) was > 100 µM (inactive), the GI50 (UACC-257) was > 100 µM (inactive) and the GI50 (A498) was > 100 µM (inactive). The GI50 (PC-3) was 68.5 µM (inactive).
